Laboratory results published in patent publication US20250228856A1, “USE OF HEMATOPOIETIC CELL KINASE (HCK) INHIBITOR IN PREPARATION OF DRUG FOR TREATING PULMONARY FIBROSIS” (Institute of Basic Medical Sciences, CAMS, priority 2024, published 2025).

Legend:
Type in all cases: in vivo, C57BL/6J mice
[1] = tested on: IPF mice; assay: Body weight and survival rate of IPF mice; conditions: BLM IPF mice, 30 mg/kg i.p., 3 weeks
Method: (§1) Male C57BL/6J mice (aged 8 weeks and weighing 25-30 g) were selected and housed in an SPF grade laboratory animal room, and the model of IPF was constructed by one-time intratracheal instillation of bleomycin (BLM); the mice were divided into four groups (n=9): • 1) PBS group+vehicle group: PBS (the volume consistent with the subsequent BLM infusion volume) was given by tracheal instillation; RK-20449 solvent PBS was injected intraperitoneally; • 2) PBS+RK-20449 group: intratracheal instillation of PBS (volume consistent with subsequent BLM infusion volume); intraperitoneal injection of RK-20449 (30 mg/kg, once a day, 6 d a week, for 3 weeks); • 3) BLM+vehicle group: BLM solution (2 U/kg) was given tracheal infusion; RK-20449 solvent PBS was injected intraperitoneally; and • 4) BLM+RK-20449 group: BLM solution (2 U/kg) was given tracheal infusion, and RK-20449 (30 mg/kg, once a day, 6 d a week, for 3 weeks) was injected intraperitoneally.
(§2) All mice were sacrificed after 21 d of administration, and the corresponding samples were collected for detection.
The mice in each group were weighed, and the death of the mice was observed and counted.

[2] = tested on: IPF mice; assay: HYP content and degree of lesions in lung tissue of IPF mice; conditions: BLM IPF mice, 30 mg/kg i.p., 3 weeks
Method: as §1, §2
30 mg of mouse lung tissue was detected using an HYP kit (NBP2-59747, Novus Biologicals, Littleton, CO, USA).

[3] = tested on: IPF mice; assay: Pulmonary function test in IPF mice; conditions: BLM IPF mice, 30 mg/kg i.p., 3 weeks
Method: as §1, §2
Anesthetized mice were fixed on an experimental table, and mouse lung function was detected by a pulmonary function testing system (DSI Buxco, USA). Before experiment, the mouse was anesthetized by intraperitoneal injection of 0.4 mL/100 g 2% pentobarbital, tracheotomy was performed, a trachea cannula was inserted, and a ventilator was connected. Next, FRC, PV, FV, and RC were automatically tested by a PET system. Indicators closely related to lung function changes in pulmonary fibrosis for statistical analysis, including lung volume indicators such as IC, and pulmonary ventilation function tests such as RI, Cdyn, and Cchord.

[4] = tested on: Hck; assay: Hck transcription level in lung tissue of IPF mice (qPCR); conditions: BLM (2 U/kg) IPF mice; RK-20449 30 mg/kg i.p. once a day, 6 d a week, 3 weeks; FIG. 1
Method: as §1, §2
(§3) Lung tissue RNA of all mice was extracted; cDNA was obtained by using a reverse transcription kit (KR103, Tiangen Biotechnology, Beijing, China); qPCR was conducted by using a SYBR Green I Q-PCR Kit (TransGen Biotech, Beijing China); data collection and analysis were conducted by Bio-Rad IQ5 system.

[5] = tested on: IPF mice; assay: Transcription levels of fibrosis factors in lung tissue of IPF mice (qPCR); conditions: BLM IPF mice, 30 mg/kg i.p., 3 weeks
Method: as §1, §2, §3

[6] = tested on: IPF mice; assay: ELISA of inflammatory factors in BALF of IPF mice; conditions: BLM IPF mice, 30 mg/kg i.p., 3 weeks
Method: as §1, §2
Concentrations of inflammatory factors IL-1β and IL-6 in mouse BALF were detected by using ELISA kits.

[7] = tested on: IPF mice; assay: Transcription levels of inflammatory factors in lung tissue of IPF mice (qPCR); conditions: BLM IPF mice, 30 mg/kg i.p., 3 weeks
Method: as §1, §2, §3

CN1CCN(C2CCC(n3cc(-c4ccc(Oc5ccccc5)cc4)c4c(N)ncnc43)CC2)CC1 (stereo not shown) [RK-20449]
weight loss of IPF mice ([1]; FIG. 2A): alleviated
survival rate ([1]; FIG. 2B): increased to a certain extent
degree of lesions [2]: alleviated
hydroxyproline content in lung tissue ([2]; lung tissue, FIG. 4C): decreased
lung function: inspiratory resistance (RI) ([3]; FIG. 2C): improved significantly
lung function: dynamic compliance (Cdyn) ([3]; FIG. 2D): improved significantly
lung function: quasi-static compliance (Cchord) ([3]; FIG. 2E): improved significantly
lung function: inspiratory capacity (IC) ([3]; FIG. 2F): improved significantly
transcription level of Hck in the lung tissue [4]: effectively inhibit
transcription level of Col-I ([5]; FIG. 4A): decreased
transcription level of Fn-1 ([5]; FIG. 4B): decreased
concentration of IL-1β in the alveolar lavage fluid ([6]; FIG. 3D): decreased
concentration of IL-6 in the alveolar lavage fluid ([6]; FIG. 3E): decreased
transcription level of Il-1β ([7]; FIG. 3A): decreased
transcription level of Il-6 ([7]; FIG. 3B): decreased
transcription level of Tnf-α ([7]; FIG. 3C): decreased
